Results published in patent publication US12178838B2, “Synthetic neuromodulatory peptides” (Lactocore, Inc., priority 2019, dated 2024).
“And” between values parts separate entries of the source, which are not always exact repeats. Identical values can stand only once. Like-named read-outs stand apart in the source and are kept apart here. No end group written: not given here.

How the values were obtained:
[1] = test system: FQSE (SEQ ID NO:10)-specific binding sites in the rat cortex; experiment: Radioligand analysis with [3H] FQSE on rat cortex membranes
Method: After decapitation, the tissues were immediately frozen in liquid nitrogen and stored in a low-temperature refrigerator at −80° C. On the day of the experiment, brain tissue (cortex, about 300 mg) was homogenized in a Teflon-glass Potter homogenizer 1:25 W:V in the buffer (50 mM Tris-HCl, pH 7.4). The homogenate was centrifuged at 40,000 g for 20 min. The obtained precipitate was homogenized in a buffer (50 mM Tris-HCl; pH=7.4) and centrifuged again at 40,000 g for 20 min. A similar procedure was performed again. The precipitate was resuspended in 15 ml of the same buffer and used for the radioligand analysis.
The incubation mixture (final volume 0.5 ml) contained 50 μl […]
At the end of the incubation, the samples were filtered through Ge/C glass fiber filters (Whatman) previously moistened with 0.3% polyethyleneimine for 2 hours at room temperature. Each tube was washed twice with cold buffer, then the filters were washed twice with the same volume of buffer.
The filters were air-dried and transferred to scintillation vials. Filters were poured with 5 ml of toluene-based scintillation liquid (4 g PPO, 0.2 g POPOP per liter of toluene).
To construct the curves of the radioactive ligand's displacement each concentration of the test substance was taken in 3 replications. […]

zebrafish (Danio rerio) [2] = experiment: Open Field test in zebrafish; assay type: in vivo; settings: ip; for average distance covered / track length (locomotor activity): diazepam 1.25, 5, 10, fluvoxamine 5, 10, ACZ-10 0.6, BCM-7 5, FQSE 1 and 10, DKTE 1, WDQV 10 mg/kg; for time spent at the surface of the aquarium: fluvoxamine 5 and 10 mg/kg, FQSE 1 mg/kg
Method: (§1) The tested substances were injected into the zebrafish intraperitoneally (ip) using an insulin syringe (0.5 ml, 30 g) 10 minutes before the test. The saline solution (0.9% NaCl) was used as a solvent. Anesthesia and immobilization of the animals were achieved by placing them in water at a temperature of 10° C. Control group fish received intraperitoneal injections of an equivalent volume of solvent, also after going through a pre-cooling procedure.
(§2) A base, back, and side walls of the aquarium were made of matte black plastic; the front panel (shorter wall) was made of transparent Plexiglas. The setup for the Light/Dark preference test consisted of three main parts: a launch compartment, a light compartment made of white plastic, and a dark compartment made of black plastic. The bright lighting in these tests was provided by a lamp on a stand (LED lamp PL, 11 W, light flux≈600 Lm, about 500 Lx directly above the water surface), which was attached to the upper part of the aquarium.
(§3) The open field test was performed as described in Maximino et al., 2013. A video recording (background shooting) was started 20-30 seconds before the zebrafish were placed in the test aquarium. The experimental zebrafish was placed in an open field (“OF”) aquarium using a net. The recording was being conducted for five minutes. The test was carried out using EthoVision XT software package (Noldus). The software registered the distance covered by the animal, its speed, the number of visits to the three conventional zones of the aquarium: “bottom,” “center,” and […] (lower, middle, and upper thirds of the aquarium, respectively), the time spent in these zones, and the latency of a visit to the middle and to the surface of the aquarium.

Sprague Dawley rats = experiment: Forced swim test in rats, intranasal FQSE; assay type: in vivo; settings: FQSE 0.5 mg/kg i.n.; ketamine 10 mg/kg IP
Method: The five doses of FQSE (SEQ ID NO:10) (0.01, 0.1, 0.5, 1 and 3 mg/kg, CS, Menlo Park, CA) were prepared fresh for each test day in sterile saline and administered intranasally (i.n.) 30 minutes prior to testing. Fifteen rats per group per peptide dose were tested with the exception that there were twenty rats in the vehicle (0) group. Each dose was administered in a randomized order across rats. Prior to dosing, the rats were lightly anesthetized (till loss of righting reflex) with isoflurane (2.5%, 0.5 L/min oxygen), placed in the recumbent position, then a thin plastic pipette (Fischer Scientific) inserted into the nares and peptide administered at a volume of 15-20 uL per nares. Individuals performing the behavioral tests were blind to drug treatment.
Rats were first allowed to acclimate to the testing room for 30 minutes while in their home cage. The forced swim tests were conducted using Plexiglas cylinders (10 in width, 18 in height) filled with water maintained at approximately 25° C. On day 1, rats were first habituated (15 minutes) to the forced swim apparatus by being placed into the water facing the cylinder wall. Forced swim tests (5 minutes) occurred the following day. Activity was recorded by digital cameras and analyzed with specialized software (Ethovision XT12).
Statistical significance was set at P<0.05.

zebrafish (Danio rerio) [3] = experiment: Shoaling behavior test in zebrafish; assay type: in vivo; settings: ip; for time spent in the compartment near the shoal: ACZ-10 0.6 mg/kg
Method: as §1
A Plexiglas container with a removable partition (shown in FIG. 4) was used as a setup for investigating the shoaling behavior of zebrafish. A shoal of 5 adult Danio rerio specimens was placed into in the small compartment; and the test fish was placed in a large compartment. Diffused lighting in this installation was provided by the usual lighting of the room (about 200 Lx).
(§4) The shoaling behavior test was performed as described in Parker et al., 2014. (Parker et al. (2014) The utility of zebrafish to study the mechanisms by which ethanol affects social behavior and anxiety during early brain development. Prog. Neuro-Psychopharmacology Biol. Psychiatry. 94-100). The video recording began simultaneously with placing the zebrafish in the set-up and recorded for 5 minutes. The videos were processed using RealTimer (OpenScience Ltd., Moskow, Russia). During the processing of the records, the residence time and the number of visits to the three conventional zones of the aquarium wall (near the “shoal” in the middle of the aquarium, and near the opposite side; all three were equal in size) were recorded.

zebrafish (Danio rerio) [4] = experiment: Light/dark box test in zebrafish; assay type: in vivo; settings: ip
Method: as §1, §2
(§5) The light/dark box (LDB) test was performed as described in Maximino et al., 2011. The zebrafish was placed in a light compartment of an LDB using a net, the camera was switched on simultaneously, and the behavior of the zebrafish was recorded for 5 minutes. The video was processed using RealTimer (OpenScience). During the processing of records, the residence time and the number of visits to the light and dark compartments of the test setup were recorded, as well as the latent period of visiting both compartments.

zebrafish (Danio rerio) [5] = experiment: Zebrafish behavioral tests taken together (open field, light/dark box, shoaling); assay type: in vivo; settings: ip; for basic behavioral parameters in open field, light/dark box and shoaling tests: FLPY 1 and 10 mg/kg, DKTE 10 mg/kg, WDQV 1 mg/kg
Method: as §1, §3, §4, §5

[6] = diazepam 1.25 mg/kg, BCM-7 5 mg/kg, DKTE 1 mg/kg, vs control
[7] = FQSE 10 mg/kg, ACZ-10 0.6 mg/kg

## CC(=O)[C@H]1CC[C@H]2[C@@H]3CC[C@H]4C[C@H](O)CC[C@]4(C)[C@H]3CC[C@]12C [Allopregnanolone]
[1]
  Amount of bound [3H] FQSE after pre-incubation compared to control level: 100.90% and 103.18%

## CC(C)(C)OC(=O)c1ncn2c1[C@@H]1CCCN1C(=O)c1c(Br)cccc1-2 [Bretanezil]
[1]
  Amount of bound [3H] FQSE after pre-incubation compared to control level: 94.79% and 104.51%

## CCCCCCN(CCCCCC)C(=O)Cc1c(-c2ccc(F)cc2)[nH]c2ccccc12 [FGIN-1-27]
[1]
  Amount of bound [3H] FQSE after pre-incubation compared to control level: 102.65% and 102.33%

## COCCCC/C(=N\OCCN)c1ccc(C(F)(F)F)cc1 [Fluvoxamine]
Zebrafish (Danio rerio) [2]; FQSE 10 mg/kg, fluvoxamine 5 mg/kg
  increase of the time spent in the upper part: more than 80%
Zebrafish (Danio rerio) [2]
  average distance covered / track length (locomotor activity): did not demonstrate any significant effects
Zebrafish (Danio rerio) [2]; fluvoxamine 5 mg/kg
  increase of the time spent under light: about 6.8 times
Zebrafish (Danio rerio) [2]; fluvoxamine 10 mg/kg
  increase of the time spent under light: about 7.2 times
Zebrafish (Danio rerio) [2]; ACZ-10 0.6 mg/kg
  time spent at the surface of the aquarium: statistically significant increase

## Oc1noc2c1CCNC2 [Gaboxadol]
[1]
  Amount of bound [3H] FQSE after pre-incubation compared to control level: 99.31% and 100.25%

## O=C(O)C1=CCNCC1 [Isoguvacine]
[1]; 10^−4M, 1 hour preincubation, 25 minutes incubation
  Amount of bound [3H] FQSE after pre-incubation compared to control level: 102.56%
[1]; 10^−5M, 1 hour preincubation, 25 minutes incubation
  Amount of bound [3H] FQSE after pre-incubation compared to control level: 104.33%
[1]; Series 5, 25 and 50 minutes at room temperature, read-out: IC50 with respect to [3H]-FQSE binding
  IC50: > 100 µM

## CNC1(c2ccccc2Cl)CCCCC1=O (stereo not shown) [Ketamine]
Sprague Dawley rats
  immobility: 196.4 ± 8.9 s
  mobility: 103.6 ± 8.9 s

## O=C(c1ccc(F)cc1)C1CCN(CCn2c(=O)[nH]c3ccccc3c2=O)CC1 [Ketanserin]
[1]; 25 min incubation at RT, read-out: IC50 with respect to [3H]-FQSE binding
  IC50: > 100 µM

## Cn1ncnc1COc1nn2c(-c3c(F)cccc3F)nnc2cc1C1CCC1 [MK0343]
[1]
  Amount of bound [3H] FQSE after pre-incubation compared to control level: 98.58% and 104.65%

## CC(=O)[C@H]1CC[C@H]2[C@@H]3CC=C4C[C@@H](O)CC[C@]4(C)[C@H]3CC[C@]12C [Pregnenolone]
[1]
  Amount of bound [3H] FQSE after pre-incubation compared to control level: 87% and 81%
[1]; RT, 50 min, read-out: IC50 after different incubation times: 50 min
  IC50: 36 ± 0.2 µM
[1]; RT, 1 h 30 min, read-out: IC50 after different incubation times: 1 h 30 min
  IC50: 75 ± 0.3 µM
[1]; RT, 1 h, read-out: IC50 after different incubation times: 1 h
  IC50: 77 ± 0.2 µM
[1]; read-out: IC50 for the [3H]-FQSE binding sites in rat cortex membranes
  IC50: ~100 µM

## O=C(N/N=C/c1ccccc1O)c1ccccc1O [SCS]
[1]
  Amount of bound [3H] FQSE after pre-incubation compared to control level: 93.93% and 104.58%

## Cn1c2ccc(F)cc2c2c(C(=O)N3CCCC3)cn(-c3ccccc3)c(=O)c21 [SL 651498]
[1]
  Amount of bound [3H] FQSE after pre-incubation compared to control level: 101.36% and 106.98%

## CC1(C)CC(=O)c2c(SCCO)sc(-c3nccs3)c2C1 [TB21007]
[1]
  Amount of bound [3H] FQSE after pre-incubation compared to control level: 103.14% and 105.28%

## C[C@]12CC[C@@H](O)C[C@@H]1CC[C@@H]1[C@@H]2CC[C@]2(C)[C@@H](C(=O)CO)CC[C@@H]12 [THDOC, tetrahydrodeoxycorticosterone; 3α,21-dihydroxy-5α-pregnan-20-one]
[1]
  Amount of bound [3H] FQSE after pre-incubation compared to control level: 100.59% and 103.38%

## DKTE: tetrapeptide D, K, T, E
Zebrafish (Danio rerio) [2]; DKTE 1 mg/kg
  latent period of visiting the bottom of the aquarium: increase
Zebrafish (Danio rerio) [2]
  average distance covered / track length (locomotor activity): did not affect
Zebrafish (Danio rerio) [3]; DKTE 1 mg/kg
  latent period of visiting the shoal: statistically significant increase
Zebrafish (Danio rerio) [3]; [6]
  time spent in the compartment near the shoal: at the level of tendency
Zebrafish (Danio rerio) [3]; diazepam 5 mg/kg, FQSE 10 mg/kg, DKTE 1 mg/kg, vs control
  time spent outside the shoaling compartment (near the wall opposite to the shoal): statistically significant increase
Zebrafish (Danio rerio) [4]; fluvoxamine 5 and 10 mg/kg, DKTE 1 mg/kg
  change in behavior / efficacy in the light/dark box test: no observed efficacy
Zebrafish (Danio rerio) [5]
  basic behavioral parameters in open field, light/dark box and shoaling tests: did not cause any statistically significant changes

## FLPY: tetrapeptide used as a negative control
Zebrafish (Danio rerio) [5]
  basic behavioral parameters in open field, light/dark box and shoaling tests: neither of the doses of FLPY (SEQ ID NO:36), induced statistically significant changes

## WDQV: tetrapeptide W, D, Q, V
Zebrafish (Danio rerio) [2]
  average distance covered / track length (locomotor activity): no influence
Zebrafish (Danio rerio) [4]; FQSE 10 mg/kg, WDQV 10 mg/kg
  time spent in the dark compartment: reduction
Zebrafish (Danio rerio) [4]; diazepam 5 mg/kg, FQSE 10 mg/kg, WDQV 10 mg/kg
  time spent in the light compartment: increase
Zebrafish (Danio rerio) [5]
  basic behavioral parameters in open field, light/dark box and shoaling tests: no significant effects
Zebrafish (Danio rerio) [5]; WDQV 10 mg/kg
  behavior in tests other than the light/dark box: did not reveal any effect

## YLGYLEQLLR [ACZ-10, L-tyrosyl-L-leucyl-glycyl-L-tyrosyl-L-leucyl-L-alpha-glutamyl-L-glutaminyl-L-leucyl-L-leucyl-L-arginine]
Zebrafish (Danio rerio) [2]; [7]
  latent period of leaving the bottom: decreased significantly
  time spent in the upper part of the aquarium: did not affect
Zebrafish (Danio rerio) [2]
  average distance covered / track length (locomotor activity): did not demonstrate any significant effects
Zebrafish (Danio rerio) [2]; ACZ-10 0.6 mg/kg
  time spent at the surface of the aquarium: approximately twofold increase
Zebrafish (Danio rerio) [3]; [6]
  time spent in the compartment near the shoal: statistically significant decrease

## YPFPGPI [BCM-7, L-tyrosyl-L-prolyl-L-phenylalanyl-L-prolyl-glycyl-L-prolyl-L-isoleucine]
Zebrafish (Danio rerio) [2]
  average distance covered / track length (locomotor activity): slight increase
Zebrafish (Danio rerio) [3]; [6]
  time spent in the compartment near the shoal: decrease
Zebrafish (Danio rerio) [3]; diazepam 1.25 mg/kg, BCM-7 5 mg/kg
  time spent outside the shoaling compartment: did not demonstrate a statistically significant effect
